Experimental findings from patent US20260000676A1, “CHROMAN DERIVATIVES AS ESTROGEN RECEPTOR DEGRADERS” (THE REGENTS OF THE UNIVERSITY OF MICHIGAN, priority 2022, published 2026) are described below.

What is called IC50 is the concentration needed to halve the response being measured. As usually defined, the DC50 is the midpoint of the concentration-degradation curve. Read a high DC50 as a less potent degrader. By Dmax is commonly meant the largest share of the target that was removed. Read a low Dmax as a partial loss of target.

The target in one assay is CRBN/DDB1 (Homo sapiens (Human), UniProt Q96SW2). In words: HTRF binding assay to CRBN/DDB1. The note with it: read-out: CRBN HTRF IC50. As for the experimental part: The binding potency was determined using HTRF assay technology (Perkin Elmer). Compounds were serially diluted in DMSO and 0.2 μL volume was transferred to white 384-well plate.
(In general: In TR-FRET formats the signal depends on donor and acceptor labels being close together.)

For assay [1], the target named is T1, ER (Homo sapiens (Human), UniProt P03372). In words: In-cell western (ICW) ER degradation assay in MCF-7 cells. It is filed as cell-based. The following applies: MCF7, 16 hrs; for DC50: ER degradation; for Dmax: MCF7, maximal ER degradation; for MCF7 Dmax %: maximal ER degradation.
Assay [2] deals with T1, ER. In words: In-cell western (ICW) ER degradation assay in T47D cells. It is filed as cell-based. The note with it: 16 hrs; for DC50: ER degradation; for Dmax / T47D Dmax %: maximal ER degradation.

Counter-ions that a name gives are not always drawn.

Chain of CRBN/DDB1 (Q96SW2 whole entry): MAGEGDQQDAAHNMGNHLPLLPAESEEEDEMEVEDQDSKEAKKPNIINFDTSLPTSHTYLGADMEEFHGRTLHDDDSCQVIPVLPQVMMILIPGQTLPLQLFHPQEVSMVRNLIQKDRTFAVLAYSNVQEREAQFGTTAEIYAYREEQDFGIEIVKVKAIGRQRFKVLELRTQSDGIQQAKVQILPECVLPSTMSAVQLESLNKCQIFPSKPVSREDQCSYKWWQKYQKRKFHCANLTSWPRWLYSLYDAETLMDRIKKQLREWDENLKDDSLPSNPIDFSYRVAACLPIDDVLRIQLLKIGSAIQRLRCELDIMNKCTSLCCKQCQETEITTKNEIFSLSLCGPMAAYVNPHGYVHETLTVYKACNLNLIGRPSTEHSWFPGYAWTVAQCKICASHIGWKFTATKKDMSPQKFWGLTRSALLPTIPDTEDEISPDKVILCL
Chain of CRBN/DDB1 (Q16531 whole entry partner): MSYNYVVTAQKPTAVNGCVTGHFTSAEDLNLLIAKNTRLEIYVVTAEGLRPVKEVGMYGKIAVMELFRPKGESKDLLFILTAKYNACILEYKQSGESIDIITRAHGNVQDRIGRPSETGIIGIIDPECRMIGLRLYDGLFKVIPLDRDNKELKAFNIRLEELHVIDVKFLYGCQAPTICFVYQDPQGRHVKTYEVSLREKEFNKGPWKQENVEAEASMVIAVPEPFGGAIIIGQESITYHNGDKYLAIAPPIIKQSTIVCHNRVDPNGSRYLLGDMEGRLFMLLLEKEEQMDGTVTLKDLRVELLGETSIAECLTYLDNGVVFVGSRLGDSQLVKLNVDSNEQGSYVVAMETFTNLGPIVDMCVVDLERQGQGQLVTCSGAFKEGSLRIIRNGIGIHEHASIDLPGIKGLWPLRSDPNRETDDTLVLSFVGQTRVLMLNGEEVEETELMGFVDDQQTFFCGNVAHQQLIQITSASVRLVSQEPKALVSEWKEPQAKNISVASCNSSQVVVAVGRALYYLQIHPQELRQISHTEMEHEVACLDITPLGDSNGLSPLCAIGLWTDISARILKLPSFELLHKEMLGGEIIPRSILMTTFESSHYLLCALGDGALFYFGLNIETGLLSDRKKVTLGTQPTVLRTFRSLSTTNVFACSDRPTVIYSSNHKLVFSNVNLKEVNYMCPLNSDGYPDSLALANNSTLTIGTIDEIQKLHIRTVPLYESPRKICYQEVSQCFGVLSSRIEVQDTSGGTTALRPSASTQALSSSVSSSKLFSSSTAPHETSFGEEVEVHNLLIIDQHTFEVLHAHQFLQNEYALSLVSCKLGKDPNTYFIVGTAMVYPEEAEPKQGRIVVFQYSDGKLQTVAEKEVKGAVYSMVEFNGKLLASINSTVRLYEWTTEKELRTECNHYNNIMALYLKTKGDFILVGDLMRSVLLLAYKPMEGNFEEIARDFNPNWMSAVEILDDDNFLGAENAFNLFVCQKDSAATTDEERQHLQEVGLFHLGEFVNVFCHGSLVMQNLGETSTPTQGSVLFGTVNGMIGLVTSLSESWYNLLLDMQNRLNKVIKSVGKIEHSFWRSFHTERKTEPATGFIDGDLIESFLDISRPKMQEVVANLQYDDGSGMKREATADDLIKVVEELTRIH
T1 sequence (P03372 whole entry): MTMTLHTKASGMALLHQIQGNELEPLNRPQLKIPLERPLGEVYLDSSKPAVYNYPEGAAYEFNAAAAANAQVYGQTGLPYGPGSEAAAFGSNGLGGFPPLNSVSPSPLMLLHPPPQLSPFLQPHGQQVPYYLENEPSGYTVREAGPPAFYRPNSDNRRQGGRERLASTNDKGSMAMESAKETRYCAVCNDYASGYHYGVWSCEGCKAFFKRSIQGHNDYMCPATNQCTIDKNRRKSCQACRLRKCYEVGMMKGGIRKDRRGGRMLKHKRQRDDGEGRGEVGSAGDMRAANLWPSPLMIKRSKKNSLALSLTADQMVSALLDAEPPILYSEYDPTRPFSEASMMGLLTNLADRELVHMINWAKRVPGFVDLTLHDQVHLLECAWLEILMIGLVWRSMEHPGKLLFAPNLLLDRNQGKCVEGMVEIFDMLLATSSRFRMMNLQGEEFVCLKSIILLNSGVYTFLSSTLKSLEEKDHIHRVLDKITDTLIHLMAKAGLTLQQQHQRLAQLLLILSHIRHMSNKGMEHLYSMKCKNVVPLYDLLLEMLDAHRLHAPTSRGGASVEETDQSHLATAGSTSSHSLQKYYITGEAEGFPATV

With `O=C1CCC(N2C(=O)c3cc4c(cc3C2=O)CN(C(=O)CN2CC3(CCN(c5ccc([C@H]6c7ccc(O)cc7OC[C@H]6c6ccccc6)cc5)CC3)C2)C4)C(=O)N1` (single isomer, unassigned) [Compound A55, formate], at CRBN/DDB1, the IC50 was in the range of 500 to 5000 nM. Moreover, the DC50 at ER [1] and at ER [2] was more than 100 nM in each case. Besides, the Dmax on ER [1] and at ER [2] was less than 25% in each case.
For `COc1cc(N2CCC(CN3CCN4c5cc6c(cc5OC[C@H]4C3)C(=O)N(C3CCC(=O)NC3=O)C6)CC2)ccc1[C@@H]1c2ccc(O)cc2OC[C@@H]1c1ccccc1` (single isomer, unassigned) [Compound A84, 3-((R)-3-((1-(4-((3S,4R)-7-hydroxy-3-phenylchroman-4-yl)-3-methoxyphenyl)piperidin-4-yl)methyl)-8-oxo-1,2,3,4,4a,5,8,10-octahydro-9H-pyrazino[1′,2′:4,5][1,4]oxazino[2,3-f]isoindol-9-yl)piperidine-2,6-dione], at CRBN/DDB1, the IC50 lay within 500 to 5000 nM. Moreover, the DC50 at ER [1] and on ER [2] was less than 1 nM throughout.
Consider `COc1cc(N2CCC3(CC2)CC(CN2CCC4(CC2)COc2c4ccc4c2CN(C2CCC(=O)NC2=O)C4=O)C3)c(F)cc1[C@H]1c2ccc(O)cc2OC[C@H]1c1ccccc1` (stereo partly drawn) [Compound A131, 3-(1′-((7-(2-fluoro-4-((3R,4R)-7-hydroxy-3-phenylchroman-4-yl)-5-methoxyphenyl)-7-azaspiro[3.5]nonan-2-yl)methyl)-6-oxo-6,8-dihydro-2H,7H-spiro[furo[2,3-e]isoindole-3,4′-piperidin]-7-yl)piperidine-2,6-dione], for which, on CRBN/DDB1, the IC50 is less than 50 nM. Besides, on ER [1], the DC50 lay in the range of 1 to 10 nM; the “MCF7 Dmax %” value is “B (“B”: >50% and <75%)”. In addition, on ER [2], the DC50 lay in the range of 1 to 10 nM; the “T47D Dmax %” value is “B (“B”: >50% and <75%)”.
For `O=C1CC[C@@H](Nc2ccc(C3CCN(C[C@@H]4COC5(CCN(c6ccc([C@H]7c8ccc(O)cc8OC[C@H]7c7ccccc7)cc6)CC5)C4)CC3)c(F)c2)C(=O)N1` (mixture of isomers) [Compound A162, 3-((3-fluoro-4-(1-(((R)-8-(4-((3RS, 4SR)-7-hydroxy-3-phenylchroman-4-yl)phenyl)-1-oxa-8-azaspiro[4.5]decan-3-yl)methyl)piperidin-4-yl)phenyl)amino)piperidine-2,6-dione], the IC50 at CRBN/DDB1 was less than 50 nM. At ER [1], this compound registered a DC50 of less than 1 nM and a Dmax of 25 to 50%. On ER [2], this compound came in with a DC50 of less than 1 nM and a Dmax not below 75%.
With `COc1nc(C(=O)NC2CCC(=O)NC2=O)ccc1N1CCN(CC2CCC3(CC2)CN(c2ccc([C@@H]4c5ccc(O)cc5OC[C@@H]4c4ccccc4)cc2)C3)CC1` (single isomer, unassigned) [Compound A108], on CRBN/DDB1, the IC50 fell in the range of 500 to 5000 nM. Besides, the DC50 at ER [1] is 1 to 10 nM; on ER [2], less than 1 nM. The Dmax at ER [1] was 50 to 75%; on ER [2] it was not below 75%; on ER [2] (given as number), 76.3%.
For the compound `COc1cc(N2CCC3(CC2)CC(CN2CCN4c5ccc6c(c5OC[C@@H]4C2)CN([C@@H]2CCC(=O)NC2=O)C6=O)C3)c(F)cc1[C@H]1c2ccc(O)cc2OC[C@H]1c1ccccc1` [Compound A126, (R)-3-((S)-7-((7-(2-fluoro-4-((3R,4R)-7-hydroxy-3-phenylchroman-4-yl)-5-methoxyphenyl)-7-azaspiro[3.5]nonan-2-yl)methyl)-1-oxo-1,3,5,5a,6,7,8,9-octahydro-2H-pyrazino[1′,2′:4,5][1,4]oxazino[2,3-e]isoindol-2-yl)piperidine-2,6-dione], at CRBN/DDB1, the half-inhibitory concentration (IC50) was less than 50 nM. At ER [1], this compound displayed a DC50 of 1 to 10 nM and a Dmax of 25 to 50%. On ER [2], the DC50 is less than 1 nM and the Dmax fell in the range of 50 to 75%.
Consider `O=C1CCC(NC(=O)c2ccc(N3CCC(CN4CCN(c5ccc([C@H]6c7ccc(O)cc7OC[C@H]6c6ccccc6)cc5)CC4)CC3)cn2)C(=O)N1` (stereo partly drawn) [Compound A129, N-(2,6-dioxopiperidin-3-yl)-5-(4-((4-(4-((3R,4S)-7-hydroxy-3-phenylchroman-4-yl)phenyl)piperazin-1-yl)methyl)piperidin-1-yl)picolinamide], for which the IC50 at CRBN/DDB1 was more than 5000 nM. Moreover, on ER [1], the DC50 lay within 10 to 100 nM and the “MCF7 Dmax %” value is given as “C (“C”: 25%-50%)”. Further, on ER [2], the DC50 was 10 to 100 nM; the “T47D Dmax %” value was “B (“B”: >50% and <75%)”.
On to `O=C1CC[C@@H](N2Cc3cc4c(cc3C2=O)OC[C@@H]2CN(C[C@H]3COC5(CCN(c6ccc([C@H]7c8ccc(O)cc8OC[C@H]7c7ccccc7)cc6)CC5)C3)CCN42)C(=O)N1` [Compound A152, (R)-3-((S)-3-(((S)-8-(4-((3R,4S)-7-hydroxy-3-phenylchroman-4-yl)phenyl)-1-oxa-8-azaspiro[4.5]decan-3-yl)methyl)-8-oxo-1,2,3,4,4a,5,8,10-octahydro-9H-pyrazino[1′,2′:4,5][1,4]oxazino[2,3-f]isoindol-9-yl)piperidine-2,6-dione], for which, at CRBN/DDB1, the IC50 was 50 to 500 nM. For the same compound, at ER [1], the DC50 was in the range of 10 to 100 nM; the “MCF7 Dmax %” value is “B (“B”: >50% and <75%)”. Also, on ER [2], the DC50 lay in the range of 1 to 10 nM; the “T47D Dmax %” value is “B (“B”: >50% and <75%)”.
As for `O=C1CCC(N2C(=O)c3cc4c(cc3C2=O)CN(C(=O)C2CCN(C3CCN(c5ccc([C@@H]6c7ccc(O)cc7OC[C@@H]6c6ccccc6)cc5)CC3)CC2)C4)C(=O)N1` (single isomer, unassigned) [Compound A79], on CRBN/DDB1, the IC50 lay within 500 to 5000 nM. For the same compound, the DC50 on ER [1] and at ER [2] was less than 1 nM throughout. Moreover, the Dmax at ER [1] and at ER [2] was not below 75% throughout.
As for `O=C1CC[C@@H](Nc2ccc(C3CCN(C[C@@H]4COC5(CCN(c6ccc([C@@H]7c8ccc(O)cc8OC[C@@H]7c7ccccc7)cc6)CC5)C4)CC3)c(F)c2)C(=O)N1` (single isomer, unassigned) [Compound A165], the IC50 on CRBN/DDB1 lay within 50 to 500 nM. Moreover, the DC50 on ER [1] (given as number) is 0.31 nM; on ER [2], less than 1 nM. The values for the Dmax at ER [1] and on ER [2] were 25 to 50% and 50 to 75%, respectively.
Take `COc1cc(N2CCC(CN3CCN(c4cnc(C(=O)NC5CCC(=O)NC5=O)cc4OC)CC3)CC2)ccc1[C@H]1c2ccc(O)cc2OC[C@H]1c1ccccc1` (single isomer, unassigned) [Compound A127]: the IC50 at CRBN/DDB1 is more than 5000 nM. In addition, on ER [1], the DC50 was less than 1 nM and the Dmax is 50 to 75%. For the same compound, on ER [2], the DC50 was less than 1 nM and the Dmax is 25 to 50%.
Take `O=C1CCC(NC(=O)c2ccc3c(n2)OC[C@H]2CN(CC4CCN(c5ccc([C@@H]6c7ccc(O)cc7OC[C@@H]6c6ccccc6)cc5F)CC4)CCN32)C(=O)N1` (single isomer, unassigned) [Compound A104]: on CRBN/DDB1, the IC50 was in the range of 500 to 5000 nM. Further, the DC50 on ER [1] and on ER [2] was 1 to 10 nM in each case. In addition, the Dmax on ER [1] and on ER [2] was not below 75% throughout.
In the case of `O=C1CCC(N2Cc3cc(N4CCN(CC5CC6(CCN(c7ccc([C@@H]8c9ccc(O)cc9OC[C@@H]8c8ccccc8)cn7)CC6)C5)CC4)ccc3C2=O)C(=O)N1` (single isomer, unassigned) [Compound A67], the IC50 on CRBN/DDB1 was in the range of 50 to 500 nM. Further, at ER [1], the DC50 is more than 100 nM and the “MCF7 Dmax %” value is reported as “D (“D”; <25%)”. Also, on ER [2], the DC50 lay within 10 to 100 nM and the “T47D Dmax %” value is given as “D (“D”; <25%)”.
In the case of `O=C1CCC(N2Cc3c(ccc4c3OC[C@H]3CN(CC5CCN(c6ccc([C@@H]7c8ccc(O)cc8OC[C@@H]7c7ccccc7)cn6)CC5)CCN43)C2=O)C(=O)N1` (single isomer, unassigned) [Compound A69], at CRBN/DDB1, the IC50 lay in the range of 50 to 500 nM. The DC50 on ER [1] and on ER [2] was 1 to 10 nM in each case. The Dmax on ER [1] was less than 25%; at ER [2] it was 25 to 50%.
As to `O=C1CC[C@H](N2Cc3c(ccc4c3OC[C@H]3CN(CC5CC6(CCN(c7ccc([C@@H]8c9ccc(O)cc9OC[C@@H]8c8ccccc8)cc7)CC6)C5)CCN43)C2=O)C(=O)N1` (single isomer, unassigned) [Compound A90], on CRBN/DDB1, the IC50 was more than 5000 nM. In addition, at ER [1], the DC50 was in the range of 1 to 10 nM; the “MCF7 Dmax %” value was “B (“B”: >50% and <75%)”. Moreover, at ER [2], the DC50 was less than 1 nM and the Dmax was 50 to 75%.
Turning to `COc1cc(N2CCC(CN3CCN4c5ccc6c(c5OC[C@H]4C3)CN(C3CCC(=O)NC3=O)C6=O)CC2)ccc1[C@H]1c2ccc(O)cc2OC[C@H]1c1ccccc1` (stereo partly drawn) [Compound A76, 3-((R)-7-((1-(4-((3R,4S)-7-hydroxy-3-phenylchroman-4-yl)-3-methoxyphenyl)piperidin-4-yl)methyl)-1-oxo-1,3,5,5a,6,7,8,9-octahydro-2H-81pyrazino[1′,2′:4,5][1,4]oxazino[2,3-e]isoindol-2-yl)piperidine-2,6-dione], at CRBN/DDB1, the IC50 lay in the range of 50 to 500 nM. Moreover, at ER [2], the half-maximal degradation concentration (DC50) was more than 100 nM and the greatest degradation seen (Dmax) is less than 25%.
For `O=C1CCC(N2C(=O)c3cc4c(cc3C2=O)CN(C(=O)C2CCN(C3CCN(c5ccc([C@H]6c7ccc(O)cc7OC[C@H]6c6ccccc6)cc5)CC3)CC2)C4)C(=O)N1` (single isomer, unassigned) [Compound A78] the same measures were 500 to 5000 nM, 10 to 100 nM and 25 to 50%.
The like results for `O=C1CCN(c2ccc(N3CCN(CC4CCN(c5ccc([C@@H]6c7ccc(O)cc7OC[C@@H]6c6ccccc6)cc5)CC4)CC3)cc2)C(=O)N1` (single isomer, unassigned) [Compound A82] were, in that order, 500 to 5000 nM, 1 to 10 nM and 25 to 50%.
